Measured values as given in patent US9593127B2, “Heterocyclylalkyne derivatives and their use as modulators of mGluR5 receptors” (RECORDATI IRELAND LTD., priority 2014, dated 2017).

Columns and labels:
[1] = biological target: T1, human mGlu5 receptor (CHO T-REx h-mGluR5 cells) (Homo sapiens (Human), UniProt P41594); assay: Calcium fluorescence measurement, antagonist potency against EC80 of quisqualate; type: cell-based; settings: agonist quisqualate at EC80; read-out: h.c. mgluR5 Calcium IC50
Text: (§1) Cell lines stably transfected were generated using inducible expression vectors encoding human mGlu5 receptor using the Tetracycline-Regulated Expression system (T-REx™ system, Invitrogen, Life Technologies). Human mGluR5 open reading frame (ORF), comprehensive of the stop codon, were cloned into the pcDNA4/TO/myc-His™ A vector, carrying the TetO2 sequences. The insertion site was HindIII-PstI for mGluR5 receptors. The obtained constructs were then transfected into the T-REx CHO™ cell line using the FuGENE protocol (Roche); the CHO T-REx™ cell line stably expresses the Tet repressor (from the pcDNA6/TR plasmid) under the selection of blasticidin, 10 μg/ml. Stable clones were obtained selecting with zeocine 1 mg/ml and maintaining in ULTRA CHO medium (LONZA) supplemented with dialyzed FBS, zeocin, blasticidine, at 37° C., in an atmosphere of 5% CO2. The expression of h-mGluR5 receptors was de-repressed with 1 μg/ml tetracycline for 18 h before binding experimentation, while the expression of h-mGluR5 receptors was de-repressed respectively with 3 ng/ml and 10 ng/ml tetracycline for 18 h before calcium fluorescence experimentation.
(§2) Cells were seeded into black-walled, clear-bottom, 96-well plates at a density of 80000 cell/well, in RPMI (without Phenol Red, without L-glutamine; Gibco LifeTechnologies, CA) supplemented with 10% dialyzed FBS. Following 18-h incubation with tetracycline, the cells were loaded with […] Ca^2+—sensitive fluorescent dye Fluo-4/AM (Molecular Probes) in Hanks' balanced saline solution (HBSS, Gibco LifeTechnologies, CA) with 20 mM Hepes (Sigma) and 2.5 mM probenecid (Sigma), for 1 h at 37° C. The cells were washed three times with HBSS to remove extracellular dye. Fluorescence signals were measured by using the fluorescence microplate reader Flexstation III (Molecular Devices) at sampling intervals of 1.5 s for 60 s.
(§3) The antagonist potency was determined using the EC80 of the quisqualate used as agonist and the potentiation of mGlu5 activation was determined using the EC20 of the agonist (quisqualate or glutamate). The compounds were applied 10 minutes before the application of the agonist. For binding and calcium assay studies, the compounds were dissolved in DMSO or demineralized water according to their solubility. All the reported doses were those of the corresponding salts or bases.

[2] = biological target: T1, human mGlu5 receptor (CHO T-REx h-mGluR5 cells); assay: Radioligand binding assay at cloned mGluR5 ([3H]MPEP displacement); settings: 4 nM [3H]MPEP, read-out: h.c. mglu R5 IC50
Text: as §1
Affinity at transmembrane glutamate metabotropic mGluR5 receptor subtypes was evaluated according to the methods of Anderson (Anderson et al., J Pharmacol. Exp. Ther., (2002), Vol. 303(3), pp. 1044-51), with some modifications. Cloned mGluR5 was obtained by re-suspending CHO T-REx h-mGluR5 cells (50 μg/well) in 20 mM HEPES, 2 mM MgCl2, 2 mM CaCl2, pH 7.4, that then were incubated in a final volume of 1 ml for 60 min at 25° C. with 4 nM [^3H]MPEP in the absence or presence of competing drugs. Non-specific binding was determined in the presence of […] MPEP. The incubation was stopped by addition of cold Tris buffer pH 7.4 and rapid filtration through 0.2% polyethyleneimine pretreated Filtermat 1204-401 (Perkin Elmer) filters. The filters were then washed with cold buffer and the radioactivity retained on the filters was counted by liquid scintillation spectrometry (Betaplate 1204 BS-Wallac).
as §3
The inhibition curves of the tested compounds at native and cloned mGluR1 and mGluR5 subtypes were determined by nonlinear regression analysis using software Prism 4.0 (Graphpad, San Diego, Calif.). The IC50 values and pseudo-Hill slope coefficients were estimated by the program. The values for the inhibition constant, Ki, were calculated according to the equation Ki=IC50/(1+[L]/Kd), where [L] is the concentration of radioligand and Kd is the equilibrium dissociation constant of the radioligand-receptor complex (Cheng et al., Biochem. Pharmacol. (1973), Vol. 22, pp. 3099-3108).

[3] = biological target: T1, human mGlu5 receptor (CHO T-REx h-mGluR5 cells); assay: Calcium fluorescence measurement, potentiation of mGlu5 activation at EC20 of quisqualate; type: cell-based; settings: for Fold Shift 1 microM Quisq. / Fold Inc. Quisq.: agonist quisqualate; for EC50: potentiation, agonist quisqualate at EC20, read-out: EC50 nM Quisq.
Text: as §1, §2, §3

T1 sequence (P41594 21-1212): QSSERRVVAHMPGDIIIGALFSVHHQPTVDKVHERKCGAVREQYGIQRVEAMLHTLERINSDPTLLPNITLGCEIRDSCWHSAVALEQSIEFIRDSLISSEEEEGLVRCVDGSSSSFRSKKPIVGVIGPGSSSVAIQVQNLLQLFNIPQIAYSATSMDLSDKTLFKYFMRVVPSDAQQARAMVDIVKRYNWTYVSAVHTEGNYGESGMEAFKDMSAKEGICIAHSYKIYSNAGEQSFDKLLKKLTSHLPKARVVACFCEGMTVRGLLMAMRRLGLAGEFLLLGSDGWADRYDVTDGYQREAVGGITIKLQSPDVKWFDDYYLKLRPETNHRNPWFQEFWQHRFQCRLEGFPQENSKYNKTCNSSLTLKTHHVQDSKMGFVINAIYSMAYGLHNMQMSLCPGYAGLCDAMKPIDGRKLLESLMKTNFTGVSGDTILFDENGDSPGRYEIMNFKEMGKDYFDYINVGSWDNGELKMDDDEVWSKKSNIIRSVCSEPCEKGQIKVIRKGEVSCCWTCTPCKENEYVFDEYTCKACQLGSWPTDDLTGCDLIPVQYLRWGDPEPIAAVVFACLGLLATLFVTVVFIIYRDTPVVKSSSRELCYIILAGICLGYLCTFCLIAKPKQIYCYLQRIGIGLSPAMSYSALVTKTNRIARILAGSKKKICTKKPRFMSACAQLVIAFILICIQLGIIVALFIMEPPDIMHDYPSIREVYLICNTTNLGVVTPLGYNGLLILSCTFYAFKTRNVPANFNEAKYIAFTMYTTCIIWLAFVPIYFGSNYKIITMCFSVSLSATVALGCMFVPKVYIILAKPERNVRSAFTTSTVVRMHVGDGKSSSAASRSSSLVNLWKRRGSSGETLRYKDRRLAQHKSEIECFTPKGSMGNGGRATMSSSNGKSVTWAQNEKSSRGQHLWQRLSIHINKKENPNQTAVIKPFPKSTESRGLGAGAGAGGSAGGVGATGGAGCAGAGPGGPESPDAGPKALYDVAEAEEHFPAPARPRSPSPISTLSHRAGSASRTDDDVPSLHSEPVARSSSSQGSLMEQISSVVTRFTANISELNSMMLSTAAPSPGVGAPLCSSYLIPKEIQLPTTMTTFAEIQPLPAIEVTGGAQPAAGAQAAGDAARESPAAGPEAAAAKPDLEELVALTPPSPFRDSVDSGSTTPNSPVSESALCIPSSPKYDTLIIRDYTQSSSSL

SMILES	IC50 [1] [nM]	IC50 [2] [nM]	Fold Shift 1 microM Quisq. [3] [fold]	Fold Inc. Quisq. [3] [fold]	EC50 [3] [nM]
O=C(N1CCCC1)N1CCC2C(C#Cc3cccc(Cl)c3)=NOC21 (centres unmarked) [Example 9, [3-[2-(3-chlorophenyl)ethynyl]-3a,4,5,6a-tetrahydropyrrolo[3,2-d]isoxazol-6-yl]-pyrrolidin-1-yl-methanone]	> 1000	15	–	–	–
Cc1cccc(C#CC2=NOC3C2CCN3C(=O)OC(C)(C)C)c1 (centres unmarked) [Example 10, tert-butyl 3-[2-(m-tolyl)ethynyl]-3a,4,5,6a-tetrahydropyrrolo[3,2-d]isoxazole-6-carboxylate]	> 1000	3.65	2.2	3.5	141
CCN(CC)C(=O)N1CCC2C(C#Cc3cccc(C)c3)=NOC21 (centres unmarked) [Example 14, N,N-diethyl-3-[2-(m-tolyl)ethynyl]-3a,4,5,6a-tetrahydropyrrolo[3,2-d]isoxazole-6-carboxamide]	> 1000	14.8	–	–	–
O=C(N1CCCCC1)N1CCC2C(C#Cc3cccc(Cl)c3)=NOC21 (centres unmarked) [Example 8, [3-[2-(3-chlorophenyl)ethynyl]-3a,4,5,6a-tetrahydropyrrolo[3,2-d]isoxazol-6-yl]-(1-piperidyl)methanone]	> 1000	12.5	–	–	–
Cc1cccc(C#CC2=NOC3C2CCN3C(=O)N2CCCC2)c1 (centres unmarked) [Example 11, [3-[2-(m-tolyl)ethynyl]-3a,4,5,6a-tetrahydropyrrolo[3,2-d]isoxazol-6-yl]-pyrrolidin-1-yl-methanone]	> 1000	17	–	–	–
O=C(c1ccco1)N1CCC2C(C#Cc3cccc(Cl)c3)=NOC21 (centres unmarked) [Example 2, [3-[2-(3-chlorophenyl)ethynyl]-3a,4,5,6a-tetrahydropyrrolo[3,2-d]isoxazol-6-yl]-(2-furyl)methanone]	> 1000	29.6	–	0	–
Cc1cccc(C#CC2=NOC3C2CCN3C(=O)N2CCOCC2)c1 (centres unmarked) [Example 13, morpholino-[3-[2-(m-tolyl)ethynyl]-3a,4,5,6a-tetrahydropyrrolo[3,2-d]isoxazol-6-yl]methanone]	> 1000	50	3.2	2.06	131

The remaining lines, values ahead:

IC50 [1] [nM]	IC50 [2] [nM]	Fold Shift 1 microM Quisq. [3] [fold]	Fold Inc. Quisq. [3] [fold]	EC50 [3] [nM]	SMILES
54.8	81.5	–	–	–	CCOC(=O)N1CCC2C(C#Cc3cccc(Cl)c3)=NOC21 (centres unmarked) [Example 3, ethyl 3-[2-(3-chlorophenyl)ethynyl]-3a,4,5,6a-tetrahydropyrrolo[3,2-d]isoxazole-6-carboxylate]
212	59.2	–	–	–	CN(C)C(=O)N1CCC2C(C#Cc3cccc(Cl)c3)=NOC21 (centres unmarked) [Example 7, 3-[2-(3-chlorophenyl)ethynyl]-N,N-dimethyl-3a,4,5,6a-tetrahydropyrrolo[3,2-d]isoxazole-6-carboxamide]
21.1	22	–	–	–	CON(C)C(=O)N1CCC2C(C#Cc3cccc(C)c3)=NOC21 (centres unmarked) [Example 15, N-methoxy-N-methyl-3-[2-(m-tolyl)ethynyl]-3a,4,5,6a-tetrahydropyrrolo[3,2-d]isoxazole-6-carboxamide]
> 1000	3.87	1.8	1.96	37.1	CC(C)(C)OC(=O)N1CCC2C(C#Cc3cccc(Cl)c3)=NOC21 (centres unmarked) [Example 1, tert-butyl 3-[2-(3-chlorophenyl)ethynyl]-3a,4,5,6a-tetrahydropyrrolo[3,2-d]isoxazole-6-carboxylate]
